# Measurements from BindingDB's records for patent US20240067645 (Lg Chem, 2024).
# Molecular target: Diacylglycerol kinase alpha (Homo sapiens, UniProt P23743)
# Test: Inhibitory Effect Against DGKalpha Enzyme
# Experimental: First, 3×OAG (3 mM)/ATP (0.45 mM) substrate solution was prepared from 1× substrate assay buffer (40 mM MOPS (pH 7.2), 20 mM MgCl2, 1 mM DTT, 0.4 mM CaCl2), 3 mM sodium deoxycholate, 100 mM NaCl, 0.1 mg/mL BSA, 0.12% NP-40), and vortexed thoroughly for 3 minutes to induce detergent-lipid micelle formation. Then, 3×DGKα (7.5 nM) enzyme solution was prepared from 2× enzyme assay buffer (80 mM MOPS (pH 7.2), 2 mM DTT, 200 mM NaCl, 0.2 mg/mL BSA) and vortexed for a short time. After preparing the above two solutions, a half-area opaque 96-well assay plate was prepared, and 10 μL of 3× diluted compound solution (30 μM to 0 μM) was transferred to each well. Next, 10 μL of 3×DGK enzyme solution was transferred to the same plate, mixed by pipetting, and then 10 μL of 3×OAG/ATP substrate solution was added to the assay plate and mixed well. The plate was incubated at room temperature for 20 minutes for the enzyme reaction. Next, 15 μL of ADP-Glo reagent was added to each well and mixed by pipetting, followed by incubating the plate at room temperature for 40 minutes to deplete the remaining ATPs. After this step, 30 μL of kinase detection reagent was added and mixed, and the plate was incubated at room temperature for an additional 20 minutes and luminescence was measured by Envision to calculate the IC50 value of each compound.
# Diacylglycerol kinase alpha, sequence (P23743 whole entry): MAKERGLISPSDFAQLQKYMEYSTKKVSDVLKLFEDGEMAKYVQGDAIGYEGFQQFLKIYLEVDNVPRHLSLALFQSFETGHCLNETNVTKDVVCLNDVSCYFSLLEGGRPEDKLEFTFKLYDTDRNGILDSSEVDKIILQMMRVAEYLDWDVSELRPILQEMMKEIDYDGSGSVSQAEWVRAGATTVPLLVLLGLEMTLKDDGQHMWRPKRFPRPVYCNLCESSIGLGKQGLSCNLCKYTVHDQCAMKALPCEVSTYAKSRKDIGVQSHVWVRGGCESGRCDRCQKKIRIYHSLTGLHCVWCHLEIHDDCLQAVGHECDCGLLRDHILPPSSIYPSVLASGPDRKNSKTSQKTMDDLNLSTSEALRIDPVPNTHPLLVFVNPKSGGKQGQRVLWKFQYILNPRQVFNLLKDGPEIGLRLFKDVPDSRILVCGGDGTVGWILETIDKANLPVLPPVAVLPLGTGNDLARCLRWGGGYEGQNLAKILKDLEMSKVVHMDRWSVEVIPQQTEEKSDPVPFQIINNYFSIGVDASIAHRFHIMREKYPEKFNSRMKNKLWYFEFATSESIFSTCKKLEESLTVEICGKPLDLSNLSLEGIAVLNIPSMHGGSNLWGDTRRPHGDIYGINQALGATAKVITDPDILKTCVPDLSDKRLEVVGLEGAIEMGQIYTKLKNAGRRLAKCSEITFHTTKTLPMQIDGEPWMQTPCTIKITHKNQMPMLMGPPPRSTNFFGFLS
row,IC50 [nM],Compound
1,< 300,"Cn1c(=O)c(=O)n(C2CCN(Cc3ccc(F)c(Cl)c3)CC2)c2ncc(Cl)cc21 [US20240067645, Example 42]"
2,< 300,"Cn1c(=O)c(=O)n(C2CCN(Cc3ccc(OC(F)(F)F)c(Cl)c3)CC2)c2ncc(Cl)cc21 [US20240067645, Example 43]"

# Second part, the compound before the results:
row,Compound,IC50 [nM]
1,"Cn1c(=O)c(=O)n(C2CCN(Cc3ccc(OC(F)(F)F)cc3)CC2)c2ncc(Br)cc21 [US20240067645, Example 34]",< 300
2,"Cn1c(=O)c(=O)n(C2CCN(Cc3cccc(Cl)c3)CC2)c2ncc(Cl)cc21 [US20240067645, Example 27]",< 300
3,"Cn1c(=O)c(=O)n(C2CCN(Cc3cccc4c(Cl)cccc34)CC2)c2ncc(Cl)cc21 [US20240067645, Example 35]",< 300
